In US20220304349A1, “Steviol Glycoside Compositions for Oral Ingestion or Use” (CARGILL, Incorporated, priority 2016, published 2022):
Blank lines part the entries; values can stand above or below the compound they belong to.

Experiments:
[1] = Instantaneous solubility: vigorous mixing with deionized water for 10 minutes at room temperature; type: physicochemical; set-up: key to instantaneous solubility at stated concentration: Clear solutions without precipitates are considered soluble; settings: for concentration of the rebaudioside in the instantaneously soluble 0.37% solution of the fermentation composition: room temperature water; for instantaneous solubility: water, room temperature
Procedure: The composition can optionally be expressed in terms of the concentration of one or more steviol glycoside(s). […] Clear solutions without precipitates are considered soluble. Unless indicated otherwise herein, the term “solubility” refers to “equilibrium solubility.”
Instantaneous solubility is determined by mixing steviol glycoisde with deionized water vigorously for 10 minutes at room temperature. […] Clear solutions without precipitates are considered soluble.

[2] = Equilibrium solubility: heating in deionized water at 80° C. for 15 minutes, cooling to room temperature, observation up to 4 days; type: physicochemical; set-up: key to equilibrium solubility at stated concentration: Clear solutions without precipitates are considered soluble; settings: for equilibrium solubility: after 80° C. for 15 minutes, at room temperature, up to 4 days
Source text: The composition can optionally be expressed in terms of the concentration of one or more steviol glycoside(s). […] Clear solutions without precipitates are considered soluble. Unless indicated otherwise herein, the term “solubility” refers to “equilibrium solubility.” […]

[3] = Sensory evaluation by two to three experienced tasters, solutions in reverse osmosis water (Example 5, Tests A and B); type: in vivo, human
Procedure: (§1) Glycoside samples (SG101-104) were isolated and purified from fermentation broth, purified Rebs A, B, and D are of leaf origin and Reb M is chemically synthesized. All samples were dissolved in reverse osmosis water at the concentrations indicated. Unsweetened black tea was used in one set of experiments. Approximately 2-3 milliliters of each solution was tasted and sensory evaluations conducted by two to three experienced tasters. Test A
As used herein, “sucrosey” means having a flavor profile, a sweetness profile, or a flavor profile and a sweetness pofile more similar to that of sucrose.

[4] = Sensory evaluation by experienced tasters in unsweetened black tea (Example 5, Test A); type: in vivo, human; settings: about 200 ppm in tea
Procedure: as §1

[5] = Sweetness time intensity (TI) profile in water, SG composition Lot B versus RebM; type: in vivo, human; settings: sweetness TI in water vs RebM
Procedure: Comparison of SG composition Lot B and RebM using TI for sweet.
Training: Descriptive panelists, who are highly trained and experienced on-call taste panelists, had four training sessions. They trained with sucrose references. Then they practiced scoring the samples using the scale on the ballot using a time intensity scale.
Testing: There was at least a 10 minute break in between samples. They were provided with filtered water, sparkling water, carrots, unsalted rice crackers and unsalted saltine crackers during break only. All samples were evaluated in a balanced sequential order one at a time. Panelists swallowed the sample at 10 seconds.
Serving Size/Container: 15 g in a 2 oz cup Serving Temp Room temperature
Sweetness Results (12 panelists; 3 replicates)

[6] = in vivo; cited from earlier work
[7] = cited from earlier work
[8] = SEV measurement by trained sensory panel in citric acid buffer at pH=3.0; type: in vivo, human; settings: for SEV: citric acid buffer pH=3.0; for Sucrose equivalent value / relative sweetness scale- sucrose = 1: 250 ppm in citric buffer, pH = 3.0
Source text: Sweetness may be determined by measuring sucrose equivalent values (SEV) using methods and processes well known to those skilled in the art. For example, SEV may be determined by measuring sweetness equivalence to a reference sucrose solution. Typically, taste panelists are trained to detect and scale sweetness of reference sucrose solutions containing between 10 g to 150 g sucrose/kg (1 to 15 wt % aqueous sucrose solution). A sweetener composition containing one or more glycosides are then tasted at a series of dilutions to determine the concentration of the sweetener composition that is as sweet as a given sucrose reference. For example, if a sweetened solution is as sweet as a 5 wt % sucrose solution, then the sweetened solution is assigned a SEV of 5.
SEV measurements for SG101-104 (listed above and in Table 12) were performed according to the following procedure: A trained sensory panel evaluated solutions of SG101, SG102, SG103, and SG104 at the concentrations specified. Solutions were made in a citric acid buffer at pH=3.0. All solutions were heated to 55° C. for 12 minutes to ensure that all the glycoside material was completely dissolved. The solutions were allowed to cool to room temperature before serving to the panelists. Each solution was given a random 3-digit code and was served to the panelists in random order. Panelists dispensed 2 mL of each solution into their mouths from a pipette. The panelists were then asked to rate the “sweetness intensity” of the solutions and mark their responses on an un-anchored, 15 cm line scale. The length of the line corresponds to the scale values (1-15) on which the participants were trained. The panelists' responses were measured, compiled, and averaged for each sample. Each sample was tested by approximately 12 trained panelists.

instantaneous solubility at stated concentration ([1]; 0.10%): soluble | instantaneous solubility at stated concentration ([1]; 0.13%): soluble | instantaneous solubility at stated concentration ([1]; 0.20%): insoluble | instantaneous solubility at stated concentration ([1]; 0.30%): insoluble | improvement (increase) in instantaneous solubility over the pure rebaudioside ([1]; in the presence of compounds SG101-104 (fermentation derived composition)): > 60% | concentration of the rebaudioside in the instantaneously soluble 0.37% solution of the fermentation composition [1]: 0.21% | concentration of the rebaudioside in the instantaneously soluble 0.37% solution of the fermentation composition ([1]; listed as reb M): about 0.21% | instantaneous solubility [1]: at least 0.13% | instantaneous solubility ([1]; listed as rebaudioside M): about 0.13% | equilibrium solubility at stated concentration ([2]; 0.10%): soluble | equilibrium solubility at stated concentration ([2]; 0.13%): soluble | equilibrium solubility at stated concentration ([2]; 0.20%): soluble | equilibrium solubility at stated concentration ([2]; 0.30%): insoluble | equilibrium solubility [2]: at least 0.2% | equilibrium solubility ([2]; listed as rebaudioside M): about 0.2%
SMILES: C=C1C[C@@]23CC[C@H]4[C@@](C)(CCC[C@@]4(C)C(=O)O[C@@H]4O[C@H](CO)[C@@H](O)[C@H](O[C@@H]5O[C@H](CO)[C@@H](O)[C@H](O)[C@H]5O)[C@H]4O[C@@H]4O[C@H](CO)[C@@H](O)[C@H](O)[C@H]4O)[C@@H]2CC[C@]1(O[C@@H]1O[C@H](CO)[C@@H](O)[C@H](O[C@@H]2O[C@H](CO)[C@@H](O)[C@H](O)[C@H]2O)[C@H]1O[C@@H]1O[C@H](CO)[C@@H](O)[C@H](O)[C@H]1O)C3 [Reb M, rebaudioside M]
Sensory comments ([3]; 200 ppm in water, Test A): Typical mid-sweet for Reb M, fairly well rounded, quick rise, some tailing, some bitter | Sensory comments ([3]; 400 ppm in water, Test A): Higher sweet, faster onset than 200 ppm, cotton candy sweetness-skews to HFCS longer linger, sharper bitterness—but not oppressing sweetness | Sensory comments ([3]; Reb M alone in water, Test B, concentration not stated at the comment): clean, sweet, spiky sweetness | Sensory comments [4]: Nice subtle sweetness, feels like sugar, but with long linger very good | Perimeter [5]: 58.3 | AUC ([5]; area under the curve (total)): 132.9a | Plateau Time ([5]; duration of peak intensity): 4.1a | Tdur ([5]; duration time of sensation): 35.4a | Imax ([5]; peak intensity, 12 panelists, 3 replicates): 5.9 | APostMax ([5]; post-peak area under the curve): 90.0a | APreMax ([5]; pre-peak area under the curve): 43.0 | Rate Decrease ([5]; slope after peak intensity): −0.2a | Rate Increase ([5]; slope before peak intensity): 0.7 | Tonset ([5]; time sensation is first perceived): 0.8 | Text ([5]; time to extinction): 36.3a | sweetness characteristics [6]: higher sweetness intensity and is more potent than other steviol glycosides | aqueous solubility in words [7]: poor aqueous solubility and dissolution qualities in beverage formulations

SMILES: C=C1C[C@@]23CCC4[C@](C)(C(=O)OC5OC(CO)C(O)C(O)C5OC5OC(CO)C(O)C(O)C5O)CCC[C@@]4(C)[C@@H]2CC[C@]1(OC1OC(COC2OC(CO)C(O)C(O)C2O)C(O)C(OC2OC(CO)C(O)C(O)C2O)C1OC1OC(CO)C(O)C(O)C1O)C3 (stereo partly shown) [SG101]
Sensory comments ([3]; 200 ppm in water, Test A): not sweet, astringent, cloying—mouth drying on the tongue | Sensory comments [4]: Zero sweetness, seems less than in water, naked tea | SEV ([8]; 200 ppm): 0.6 | SEV ([8]; 400 ppm): 1.2 | SEV ([8]; 500 ppm): 1.6

SMILES: C=C1C[C@@]23CCC4[C@](C)(C(=O)OC5OC(CO)C(O)C(OC6OC(CO)C(O)C(O)C6O)C5OC5OC(CO)C(O)C(O)C5O)CCC[C@@]4(C)[C@@H]2CC[C@]1(OC1OC(COC2OC(CO)C(O)C(O)C2O)C(O)C(OC2OC(CO)C(O)C(O)C2O)C1OC1OC(CO)C(O)C(O)C1O)C3 (stereo partly shown) [SG102]
Sensory comments ([3]; 200 ppm in water, Test A): a bit sweeter than SG101, sweetness does have quick onset | Sensory comments [4]: Not sweet, slightly less astringent, some additional roundedness | SEV ([8]; 200 ppm): 1.0 | SEV ([8]; 400 ppm): 1.5

SMILES: C=C1C[C@@]23CCC4[C@](C)(C(=O)OC5OC(CO)C(O)C(O)C5OC5OC(CO)C(O)C(O)C5O)CCC[C@@]4(C)[C@@H]2CC[C@]1(OC1OC(CO)C(O)C(OC2OC(COC4OC(CO)C(O)C(O)C4O)C(O)C(O)C2O)C1OC1OC(CO)C(O)C(O)C1O)C3 (stereo partly shown) [SG103]
Sensory comments ([3]; 200 ppm in water, Test A): as sweet or sweeter than 200 ppm Reb M, more sucrosey, sugary quality characteristics (high fructose corn syrup (HFCS), cotton candy notes) are reminiscent of Reb M at 400 ppm but not as sweet, “fuller” feeling | Sensory comments [4]: Slower onset than Reb M by itself, not as sweet as Reb M, slightly more licorice aftertaste | Sucrose equivalent value [8]: 4.8 | relative sweetness scale- sucrose = 1 [8]: 192X

SMILES: C=C1C[C@@]23CCC4[C@](C)(C(=O)OC5OC(CO)C(O)C(OC6OC(CO)C(O)C(O)C6O)C5OC5OC(CO)C(O)C(O)C5O)CCC[C@@]4(C)[C@@H]2CC[C@]1(OC1OC(CO)C(O)C(OC2OC(COC4OC(CO)C(O)C(O)C4O)C(O)C(O)C2O)C1OC1OC(CO)C(O)C(O)C1O)C3 (stereo partly shown) [SG104]
Sensory comments ([3]; 200 ppm in water, Test A): as sweet or sweeter than 200 ppm Reb M, more rounded sweetness, enhanced sugar quality effects (sensations reminiscent of sucrose, vanilla), “fuller” feeling | Sensory comments [4]: As sweet as Reb M, very sucrosey compared to Reb M, a little back end licorice | Sucrose equivalent value [8]: 6.5 | relative sweetness scale- sucrose = 1 [8]: 260X
